Measurements reported in article PMC5216056 (Nature Communications, 2017).
“And” between values parts separate entries of the source, which are not always exact repeats. Equal entries are not always repeated. Where two headings read alike, the source gives them in different places.

How the values were obtained:
[1] = tested on: Na+ channel (site 2); format: binding; details: 10 µM
[2] = target: T1, hCB1R (Homo sapiens, UniProt P21554); assay: cell-based; format: cell-based
T1 construct: host or cells: CHO

[3] = tested on: PCP; format: binding; details: 10 µM
[4] = target: T2, norepinephrine transporter (h) (Homo sapiens, UniProt P23975); assay: biochemical; format: binding; details: 10 µM
T2 construct: CEREP (contract assay)

[5] = target: T1, hCB1R; assay: biochemical; format: biochemical
[6] = target: T3, hGPR55 (Homo sapiens, UniProt Q9Y2T6); assay: cell-based; details: β-arrestin recruitment
T3 construct: host or cells: CHO-K1 (PathHunter hGPR55_bgal)

[7] = 1 μM
[8] = tested on: AEA cellular uptake in HMC-1 cells; assay: cells; format: cell-based, human; details: FAAH-deficient cells
[9] = target: T1, hCB1R; assay: biochemical; format: binding; details: CHO membranes; Leiden, HU210 and SR144528 from Roche
[10] = tested on: AEA cellular uptake in U937 cells; assay: cells; format: cell-based, human; details: for AEA reuptake Efficacy (% inhibition) U937 cells: from dose-response
[11] = target: T4, Human recombinant TRPV1 (Homo sapiens, UniProt Q8NER1); assay: cell-based; format: cell-based
T4 construct: expressed in transfected cells; host or cells: HEK293 (TRPV1-HEK-293, gift from John Davis, GlaxoSmithKline)

[12] = 1 μM; remark: listed apart in the source
[13] = target: T5, mCB1R (Mus musculus, UniProt P47746); assay: biochemical; format: binding; details: mouse brain membranes
T5 construct: from tissue; host or cells: brain of male C57BL/6J mice

[14] = target: T6, Rat recombinant TRPM8 (Rattus norvegicus, UniProt Q8R455); assay: TRP channel [Ca2+]i assay; format: cell-based; details: read-out: TRPM8 IC50 for antagonism of icilin
T6 construct: expressed in transfected cells; host or cells: HEK293 (TRPM8-HEK-293, gift from Mario van der Stelt)

[15] = target: hCB2R (Homo sapiens, UniProt P34972); set-up: expressed in transfected cells; host or cells: Flp-In-293 (Invitrogen #R750-07), pcDNA5/FRT; details: hCB2R
[16] = target: T1, hCB1R; assay: cell-based; format: cell-based; remark: listed apart in the source
[17] = i.v., mice
[18] = target: T7, PPARgamma (h) (Homo sapiens, UniProt P37231); assay: CEREP panel; format: binding; details: 10 µM
T7 construct: CEREP (contract assay)
T7 sequence (P37231 1-505): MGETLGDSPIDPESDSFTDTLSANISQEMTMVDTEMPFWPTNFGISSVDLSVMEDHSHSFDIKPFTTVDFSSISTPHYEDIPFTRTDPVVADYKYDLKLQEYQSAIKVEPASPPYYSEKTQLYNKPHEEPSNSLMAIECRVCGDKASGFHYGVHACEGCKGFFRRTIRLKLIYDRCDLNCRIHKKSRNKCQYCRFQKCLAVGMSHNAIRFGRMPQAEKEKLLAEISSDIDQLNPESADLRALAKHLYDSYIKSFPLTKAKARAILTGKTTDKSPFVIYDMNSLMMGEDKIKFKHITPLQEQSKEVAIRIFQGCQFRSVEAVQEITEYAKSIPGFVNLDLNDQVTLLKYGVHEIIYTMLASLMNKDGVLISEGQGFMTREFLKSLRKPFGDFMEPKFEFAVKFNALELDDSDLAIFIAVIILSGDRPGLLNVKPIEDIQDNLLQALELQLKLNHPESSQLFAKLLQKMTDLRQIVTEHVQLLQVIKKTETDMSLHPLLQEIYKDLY

[19] = target: T8, MT3 (ML2) (Mesocricetus auratus, UniProt A0ABM2YAB8); assay: CEREP panel; format: binding; details: read-out: % inhibition MT3 (ML2)
T8 construct: CEREP (contract assay)
T8 sequence (A0ABM2YAB8 1-231): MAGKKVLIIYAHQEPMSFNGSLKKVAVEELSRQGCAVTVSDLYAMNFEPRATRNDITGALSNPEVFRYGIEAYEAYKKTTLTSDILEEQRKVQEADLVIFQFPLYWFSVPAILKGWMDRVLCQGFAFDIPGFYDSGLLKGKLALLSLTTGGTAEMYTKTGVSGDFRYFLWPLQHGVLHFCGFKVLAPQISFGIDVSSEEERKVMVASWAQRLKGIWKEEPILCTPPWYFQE

Chain of hCB2R (P34972 whole entry): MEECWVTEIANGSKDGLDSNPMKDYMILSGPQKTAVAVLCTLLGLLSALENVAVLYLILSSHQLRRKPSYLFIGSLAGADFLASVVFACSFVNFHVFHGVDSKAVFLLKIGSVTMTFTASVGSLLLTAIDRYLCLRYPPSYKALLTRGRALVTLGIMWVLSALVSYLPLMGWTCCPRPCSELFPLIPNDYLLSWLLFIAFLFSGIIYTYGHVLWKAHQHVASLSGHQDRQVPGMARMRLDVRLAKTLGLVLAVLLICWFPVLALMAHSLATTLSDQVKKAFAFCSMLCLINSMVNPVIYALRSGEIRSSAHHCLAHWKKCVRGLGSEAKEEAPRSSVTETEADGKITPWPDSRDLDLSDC
T4 sequence (Q8NER1 whole entry): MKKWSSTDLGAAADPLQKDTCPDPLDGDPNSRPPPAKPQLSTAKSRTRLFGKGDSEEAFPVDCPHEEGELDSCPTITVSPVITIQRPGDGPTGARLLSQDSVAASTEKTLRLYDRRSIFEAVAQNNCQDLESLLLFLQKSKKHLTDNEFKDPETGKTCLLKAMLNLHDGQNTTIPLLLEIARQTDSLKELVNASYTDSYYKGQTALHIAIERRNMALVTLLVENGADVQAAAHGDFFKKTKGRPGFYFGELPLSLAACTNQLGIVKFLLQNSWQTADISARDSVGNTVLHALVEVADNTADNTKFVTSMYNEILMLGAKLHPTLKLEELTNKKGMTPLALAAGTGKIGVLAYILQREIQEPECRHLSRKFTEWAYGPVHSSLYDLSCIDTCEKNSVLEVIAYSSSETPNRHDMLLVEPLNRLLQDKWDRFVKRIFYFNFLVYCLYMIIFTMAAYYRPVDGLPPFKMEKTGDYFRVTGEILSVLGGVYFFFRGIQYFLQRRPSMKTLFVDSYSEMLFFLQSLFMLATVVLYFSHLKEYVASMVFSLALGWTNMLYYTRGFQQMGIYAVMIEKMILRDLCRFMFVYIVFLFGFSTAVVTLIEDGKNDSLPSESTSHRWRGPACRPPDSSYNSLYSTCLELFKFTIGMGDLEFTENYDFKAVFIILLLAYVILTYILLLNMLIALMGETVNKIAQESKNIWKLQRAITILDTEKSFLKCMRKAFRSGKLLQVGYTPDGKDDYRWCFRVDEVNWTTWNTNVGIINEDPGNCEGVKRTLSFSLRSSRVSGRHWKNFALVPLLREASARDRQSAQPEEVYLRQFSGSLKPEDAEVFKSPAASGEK
T1 sequence (P21554 whole entry): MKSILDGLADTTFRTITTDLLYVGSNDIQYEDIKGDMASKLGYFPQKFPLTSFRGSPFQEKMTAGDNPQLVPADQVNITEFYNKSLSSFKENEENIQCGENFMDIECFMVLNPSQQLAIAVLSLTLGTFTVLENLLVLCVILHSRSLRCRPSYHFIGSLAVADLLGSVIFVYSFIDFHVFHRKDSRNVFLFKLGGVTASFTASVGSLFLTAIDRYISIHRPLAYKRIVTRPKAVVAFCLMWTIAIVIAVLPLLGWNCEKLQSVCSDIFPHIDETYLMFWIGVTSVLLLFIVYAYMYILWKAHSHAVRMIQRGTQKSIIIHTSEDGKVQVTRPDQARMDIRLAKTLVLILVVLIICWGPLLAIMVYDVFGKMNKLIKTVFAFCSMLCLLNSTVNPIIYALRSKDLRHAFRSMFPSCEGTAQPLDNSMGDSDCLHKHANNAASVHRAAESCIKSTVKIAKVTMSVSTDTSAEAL
T6 sequence (Q8R455 whole entry): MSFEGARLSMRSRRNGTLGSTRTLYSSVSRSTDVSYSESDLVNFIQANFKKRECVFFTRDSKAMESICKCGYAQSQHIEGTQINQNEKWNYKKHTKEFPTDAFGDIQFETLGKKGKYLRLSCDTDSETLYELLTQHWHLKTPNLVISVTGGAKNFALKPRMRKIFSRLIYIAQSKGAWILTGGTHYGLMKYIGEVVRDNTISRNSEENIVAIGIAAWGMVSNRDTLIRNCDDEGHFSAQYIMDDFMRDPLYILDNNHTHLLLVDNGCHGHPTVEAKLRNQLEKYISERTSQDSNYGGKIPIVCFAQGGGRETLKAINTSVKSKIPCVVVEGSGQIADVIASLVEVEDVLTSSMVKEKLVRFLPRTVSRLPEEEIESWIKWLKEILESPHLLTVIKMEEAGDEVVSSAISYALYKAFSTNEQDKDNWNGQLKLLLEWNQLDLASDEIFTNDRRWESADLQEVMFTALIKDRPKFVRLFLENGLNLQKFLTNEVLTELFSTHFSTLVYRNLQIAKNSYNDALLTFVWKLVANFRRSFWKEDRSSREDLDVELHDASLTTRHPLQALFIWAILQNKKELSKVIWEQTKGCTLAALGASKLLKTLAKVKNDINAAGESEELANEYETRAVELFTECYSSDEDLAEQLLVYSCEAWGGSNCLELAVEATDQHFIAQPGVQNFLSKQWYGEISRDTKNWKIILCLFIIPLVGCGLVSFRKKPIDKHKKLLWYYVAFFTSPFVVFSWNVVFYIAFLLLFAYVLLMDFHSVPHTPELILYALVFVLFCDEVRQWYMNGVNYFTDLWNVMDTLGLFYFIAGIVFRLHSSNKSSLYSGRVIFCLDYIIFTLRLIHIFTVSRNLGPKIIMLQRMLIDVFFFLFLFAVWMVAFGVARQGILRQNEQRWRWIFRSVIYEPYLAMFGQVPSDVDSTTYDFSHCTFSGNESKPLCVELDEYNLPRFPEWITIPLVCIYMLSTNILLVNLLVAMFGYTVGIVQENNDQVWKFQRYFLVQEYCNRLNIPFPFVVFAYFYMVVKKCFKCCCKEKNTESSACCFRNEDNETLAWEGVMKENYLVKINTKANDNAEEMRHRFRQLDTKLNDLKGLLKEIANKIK
T3 sequence (Q9Y2T6 whole entry): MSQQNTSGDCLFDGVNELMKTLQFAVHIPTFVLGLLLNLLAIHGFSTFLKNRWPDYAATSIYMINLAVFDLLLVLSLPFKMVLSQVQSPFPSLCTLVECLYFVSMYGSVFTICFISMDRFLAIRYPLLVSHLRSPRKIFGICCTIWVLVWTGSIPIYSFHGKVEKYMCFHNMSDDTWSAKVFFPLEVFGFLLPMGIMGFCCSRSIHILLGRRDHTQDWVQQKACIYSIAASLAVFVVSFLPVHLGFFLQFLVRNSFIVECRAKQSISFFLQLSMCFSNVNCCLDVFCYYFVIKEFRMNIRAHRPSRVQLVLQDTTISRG
T2 sequence (P23975 whole entry): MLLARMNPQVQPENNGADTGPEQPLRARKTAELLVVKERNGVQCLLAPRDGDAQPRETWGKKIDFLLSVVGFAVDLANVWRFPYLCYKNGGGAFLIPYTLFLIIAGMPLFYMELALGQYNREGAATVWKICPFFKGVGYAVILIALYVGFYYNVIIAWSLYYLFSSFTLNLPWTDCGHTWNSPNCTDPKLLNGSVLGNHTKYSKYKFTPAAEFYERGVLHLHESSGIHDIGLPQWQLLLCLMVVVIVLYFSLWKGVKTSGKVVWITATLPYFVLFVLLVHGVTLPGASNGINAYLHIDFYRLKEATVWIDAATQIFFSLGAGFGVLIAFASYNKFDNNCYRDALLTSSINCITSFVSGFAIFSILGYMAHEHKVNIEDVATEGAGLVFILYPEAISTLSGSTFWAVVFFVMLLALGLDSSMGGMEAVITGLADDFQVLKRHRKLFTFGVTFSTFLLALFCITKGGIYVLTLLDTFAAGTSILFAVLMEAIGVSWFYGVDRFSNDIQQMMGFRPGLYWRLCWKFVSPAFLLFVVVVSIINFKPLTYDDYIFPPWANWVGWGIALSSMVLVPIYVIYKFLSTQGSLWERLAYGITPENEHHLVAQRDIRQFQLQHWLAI
T5 sequence (P47746 whole entry): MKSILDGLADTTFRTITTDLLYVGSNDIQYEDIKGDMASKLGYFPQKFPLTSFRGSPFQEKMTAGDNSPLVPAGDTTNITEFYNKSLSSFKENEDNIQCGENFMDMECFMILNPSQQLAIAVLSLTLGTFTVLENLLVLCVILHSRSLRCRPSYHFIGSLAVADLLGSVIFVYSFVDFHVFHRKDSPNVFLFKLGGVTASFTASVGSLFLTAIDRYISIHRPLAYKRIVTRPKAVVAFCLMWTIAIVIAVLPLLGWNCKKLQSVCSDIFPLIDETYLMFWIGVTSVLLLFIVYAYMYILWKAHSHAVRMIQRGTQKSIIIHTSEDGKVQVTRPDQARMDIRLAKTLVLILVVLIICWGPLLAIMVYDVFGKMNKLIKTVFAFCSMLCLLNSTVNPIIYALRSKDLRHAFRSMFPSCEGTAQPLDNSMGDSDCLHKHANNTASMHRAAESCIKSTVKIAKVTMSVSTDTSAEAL

Compound: CCCCCCC(C)(C)c1cc(OC)c(C2=C[C@H]3CC[C@]2(CO)C3(C)C)c(OC)c1 [HU910]
- % inhibition Na+ channel (site 2) [1]: 5%
- Emax ± SEM pERK hCB1R [2]: 12 ± 4
- pEC50 ± SEM pERK hCB1R [2]: < 4
- % inhibition PCP [3]: -25%
- % inhibition norepinephrine transporter (h) [4]: 58%
- pEC50 ± SEM GTPγS hCB1R [5]: < 5
- GPR55 Emax ± SEM (%) or % effect at 10 µM [6]: -10 ± 3%
- GPR55 pEC50 (± SEM) [6]: < 5
- CL hepatocytes mouse [7]: 34 µL/min/mio cells
- IC50 ([8]; read-out: AEA reuptake IC50 (95% CI) HMC-1 cells): > 5 µM
- pKi ± SEM hCB1R [9]: < 5
- AEA reuptake Efficacy (% inhibition) U937 cells [10]: 70%
- IC50 ([10]; read-out: AEA reuptake IC50 (95% CI) U937 cells): 1.56 µM
- TRPV1 Efficacy (% ionomycin 4μM) [11]: < 10%
- IC50 ([11]; read-out: TRPV1 IC50 for antagonism or desensitization): > 100 µM
- CL microsomes human [12]: 90 µL/min/mg protein
- pKi ± SEM mCB1R [13]: 6.14±0.13
- IC50 ([14]; vs icilin […]): > 100 µM
- GIRK-GTPγS bias factor (BF) [15]: 0.31
- GIRK-GTPγS ΔΔlogR [15]: -0.51
- GIRK-cAMP bias factor (BF) [15]: 2.42
- GIRK-cAMP ΔΔlogR [15]: 0.38 ± 0.20
- GTPγS-cAMP bias factor (BF) [15]: 7.73
- GTPγS-cAMP ΔΔlogR [15]: 0.89 ± 0.31
- LogR GIRK [15]: 5.90
- LogR GTPγS [15]: 6.82
- LogR cAMP [15]: 8.37
- LogR pERK [15]: 6.94
- LogR β-AR [15]: 7.72
- pERK-GIRK bias factor (BF) [15]: 0.73
- pERK-GIRK ΔΔlogR [15]: -0.13
- pERK-GTPγS bias factor (BF) [15]: 0.23
- pERK-GTPγS ΔΔlogR [15]: -0.64
- pERK-cAMP bias factor (BF) [15]: 1.77
- pERK-cAMP ΔΔlogR [15]: 0.25 ± 0.28
- β-AR-GIRK bias factor (BF) [15]: 15.07
- β-AR-GIRK ΔΔlogR [15]: 1.18 ± 0.22
- β-AR-GTPγS bias factor (BF) [15]: 4.71
- β-AR-GTPγS ΔΔlogR [15]: 0.67 ± 0.32
- β-AR-cAMP bias factor (BF) [15]: 36.90
- β-AR-cAMP ΔΔlogR [15]: 1.57 ± 0.15
- β-AR-pERK bias factor (BF) [15]: 20.56
- β-AR-pERK ΔΔlogR [15]: 1.31 ± 0.29
- ΔLogR GIRK ([15]; reference CP55940): -1.96
- ΔLogR GTPγS ([15]; reference CP55940): -1.46
- ΔLogR cAMP ([15]; reference CP55940): -2.35
- ΔLogR pERK ([15]; reference CP55940): -2.1
- ΔLogR β-AR ([15]; reference CP55940): -0.78
- RE GIRK ([15]; relative effectiveness): 0.01
- RE GTPγS ([15]; relative effectiveness): 0.03
- RE cAMP ([15]; relative effectiveness): 0.005
- RE pERK ([15]; relative effectiveness): 0.01
- RE β-AR ([15]; relative effectiveness): 0.16
- Emax ± SEM β-AR recruitment hCB1R [16]: -97 ± 4
- pEC50 ± SEM β-AR recruitment hCB1R [16]: 5.31 ± 0.06
- AUCinf [17]: 6.06 µg·h/mL
- AUCinf/dose [17]: 6060 kg·ng·h/mL/mg
- AUClast [17]: 5.96 µg·h/mL
- CL [17]: 0.17 L/h/kg
- T1/2 [17]: 7.4 h and 7 h
- C0 ([17]; 1.0-2.0 mg/kg, extrapolated): 55.6 µg/mL
- % inhibition PPARgamma (h) [18]: 17%

Compound: Cc1c(C(=O)NN2CCCCC2)nn(-c2ccc(Cl)cc2Cl)c1-c1ccc(Cl)cc1 [SR141716A]
- inhibition at 10 µM [19]: 4%
- IC50 ([8]; Homo sapiens, HMC1, read-out: AEA reuptake IC50 (95% CI) HMC-1 cells): 3.5 µM
- IC50 ([10]; Homo sapiens, U-937, read-out: AEA reuptake IC50 (95% CI) U937 cells): 1.91 µM
- AEA reuptake Efficacy (% inhibition) U937 cells [10]: 57%
- TRPV1 Efficacy (% ionomycin 4μM) [11]: 17.5%
- IC50 ([11]; TRPV1 IC50 for antagonism or desensitization): 33.7 µM and 11.5 µM
- EC50 ([11]; read-out: TRPV1 Potency EC50): 12 µM
- IC50 ([14]; icilin concentration not given): 0.041 ± 0.0109 µM
